Reference: US8129424B2, “Indole derivatives as histamine 3 receptor inhibitors for the treatment of cognitive and sleep disorders, obesity and other CNS disorders” (Athersys, Inc., priority 2005, dated 2012)

What follows are compounds tested against T1, human histamine H3 receptor (Homo sapiens, UniProt Q9Y5N1) (assay: Radioligand competition binding assay with [125I]iodoproxyfan on RAGE-H3 cell membranes). Conditions: [125I]iodoproxyfan competition binding, apparent Ki by Cheng-Prussof equation.
T1 construct: expressed in transfected cells; host or cells: HT1080-Gqαi5 cells (human), pFG8-HH3 RAGE vector integrated; methotrexate-amplified clone RAGE-H3
T1 sequence (Q9Y5N1 whole entry): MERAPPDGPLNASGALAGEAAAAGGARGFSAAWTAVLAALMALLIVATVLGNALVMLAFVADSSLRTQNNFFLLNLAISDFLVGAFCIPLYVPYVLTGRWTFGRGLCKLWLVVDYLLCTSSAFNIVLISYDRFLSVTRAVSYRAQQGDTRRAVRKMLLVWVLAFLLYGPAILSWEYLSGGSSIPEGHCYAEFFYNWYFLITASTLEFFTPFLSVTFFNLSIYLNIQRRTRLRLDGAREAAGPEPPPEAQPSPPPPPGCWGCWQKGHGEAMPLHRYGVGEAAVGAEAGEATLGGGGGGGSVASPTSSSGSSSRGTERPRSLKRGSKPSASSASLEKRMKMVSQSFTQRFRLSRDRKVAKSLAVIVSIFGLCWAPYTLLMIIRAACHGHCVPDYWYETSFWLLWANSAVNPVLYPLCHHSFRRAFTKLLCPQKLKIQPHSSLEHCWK
Experimental: Representative compounds of the present invention that were prepared by the procedures of Examples 1-41 were evaluated in binding assays against cells expressing human H3 receptor by the following procedure.
The human histamine H3 receptor was stably expressed in HT1080 cells containing the chimeric G-protein, Gq[…]i5 (Coward et al., Anal Biochem 1999; 270:242-8). HT1080-Gqαi5 cells were grown in alpha-modified MEM containing 10% fetal bovine serum and 7 μg/ml blasticidin at 37° C. in 5% CO2/95% atmosphere. Cells (4.8×10^9) were irradiated with 50 rads from a ^137Cs source and the pFG8-HH3 RAGE (Random Activation of Gene Expression; see Harrington et al., Nature Biotechnology. 2001; 19:440-45) vector was subsequently integrated into the cells via electroporation (250V, 600 μF, 50Ω). The RAGE vector pFG8-HH3 contained cDNA sequence coding for the first exon (83 amino acids) of human H3 receptor. After electroporation, cells were plated in T75 flasks and grown in alpha-modified MEM. The culture medium was replaced 48 hours after electroporation with alpha-modified MEM, 10% fetal bovine serum, 500 μg/ml hygromycin B and 3 μg/ml puromycin. Medium was replaced every four days during cell expansion. To identify RAGE activated cells expressing the H3 receptor, pools of approximately 10,000 colonies (5×10^7-1.5×10^8 cells total) were screened by PCR for the desired gene product (using primers specific to the RAGE vector and exon 2 of the H3 receptor). […] Positive 100 cells/well pools were identified by PCR, confirmed by sequencing, and subsequently subcloned to 0.8 cells/well. Once clones expressing the H3 receptor were identified by PCR analysis, assays (FLIPR or radioligand binding) were performed to confirm that the activated gene produced functional protein. The protein expression in the initial clones obtained from the RAGE library was increased by growth in the presence of methotrexate. Since the integrated RAGE vector contains the DHFR gene, such treatment selects for cells that have amplified the genetic locus containing the RAGE insert. Subclones obtained after methotrexate amplification were tested for functional activity in FLIPR assays to identify the clone that was most suitable for HTS. The final HT1080-Gqαi5 RAGE clone (RAGE-H3) expressing the human histamine H3 receptor was grown in alpha-modified MEM containing 10% fetal bovine serum, 3 μg/ml puromycin, 500 μg/ml hygromycin B, 3.2 μM methotrexate at 37° C. in 5% CO2/95% atmosphere.
RAGE-H3 cells (10^9) were washed twice with cold PBS, scraped off the plates, and centrifuged at 1000×g for 5 minutes. Cells were resuspended in ice-cold 10 mM Tris HCl, pH 7.4, containing 5 mM EDTA and protease inhibitor cocktail tablets (Roche Molecular Biochemicals). After incubating on ice for 10 minutes, the cells were homogenized with a dounce homogenizer or a polytron tissue grinder, and centrifuged at 1000×g for 10 minutes at 4° C. The resulting supernatant was centrifuged at 32,000×g for 30 minutes at 4° C. The membrane pellets were resuspended in 50 mM Tris HCl, pH 7.4, and stored at −80° C. until use. Protein concentration was determined by the Bradford method (Bio-Rad Laboratories, CA).
Binding assays were carried out in 96-well polypropylene plates in 50 mM Tris HCl, pH 7.4, containing 1 mM EDTA. Reaction mixtures contained 100 μl of membrane suspension, 50 of 4% DMSO, and 50 μl of increasing amounts of [^125I]iodoproxyfan (final concentration 0.0005-1.8 nM for human H3 receptor saturation binding assay). Nonspecific binding was defined by adding 10 μM clobenpropit to the reaction mixtures. Competition binding assays were performed in a reaction mixture containing 100 μl of membrane suspension (˜20 μg of protein/well), 50 μl of [^125I]iodoproxyfan (final concentration of ˜0.15 nM) and 50 μl of test compound. Compounds were dissolved in DMSO and then diluted with 4% DMSO; the final maximal DMSO concentration in the binding assays was 1%. […]

Ki [µM]	SMILES
< 0.01	COCc1cc2cc(C)ccc2n1-c1ccc(OCCCN2CCCC2)cc1 [Example 43, 5-Methyl-2-methoxymethyl-1-[4-(3-pyrrolidin-1-ylpropoxy)phenyl]-1H-indole]
< 0.01	c1ccc2c(c1)cc(COC1CCCCC1)n2-c1ccc(OCCCN2CCCC2)cc1 [Example 33, 2-Cyclohexyloxymethyl-1-[4-(3-pyrrolidin-1-ylpropoxy)phenyl]-1H-indole]
< 0.01	COCc1cc2cc(OC)ccc2n1-c1ccc(OCCCN2CCCC2)cc1 [Example 42, 5-Methoxy-2-methoxymethyl-1-[4-(3-pyrrolidin-1-ylpropoxy)phenyl]-1H-indole]
< 0.01	C[C@@H]1CCCN1CCCOc1ccc(-n2c(C(=O)NCC3CCCCC3)cc3ccccc32)cc1 [Example 28, 1-{4-[3-(2R-Methylpyrrolidin-1-yl)propoxy]phenyl}-1H-indole-2-carboxylic acid cyclohexylmethylamide]
< 0.01	CCOC(=O)c1cc2ccccc2n1-c1ccc(OCCCN2CCCC2)cc1 [Example 30, 1-[4-(3-Pyrrolidin-1-ylpropoxy)phenyl]-1H-indole-2-carboxylic acid ethyl ester]
< 0.01	CC(C)OCc1cc2ccccc2n1-c1ccc(OCCCN2CCCC2)cc1 [Example 34, 2-Isopropoxymethyl-1-[4-(3-pyrrolidin-1-ylpropoxy)phenyl]-1H-indole]
< 0.01	COc1ccc2c(c1)cc(C(=O)NC1CCCCC1)n2-c1ccc(OCCCN2CCC[C@H]2C)cc1 [Example 29, 5-Methoxy-1-{4-[3-(2R-methylpyrrolidin-1-yl)propoxy]phenyl}-1H-indole-2-carboxylic acid cyclohexylamide]
< 0.01	OCc1cc2ccccc2n1-c1ccc(OCCCN2CCCC2)cc1 [Example 31, {1-[4-(3-Pyrrolidin-1-ylpropoxy)phenyl]-1H-indol-2-yl}methanol]
< 0.01	COCc1cc2cc(F)ccc2n1-c1ccc(OCCCN2CCCC2)cc1 [Example 44, 5-Fluoro-2-methoxymethyl-1-[4-(3-pyrrolidin-1-ylpropoxy)phenyl]-1H-indole]
< 0.01	COc1ccc2c(c1)cc(CO)n2-c1ccc(OCCCN2CCCC2)cc1 [Example 36, {5-Methoxy-1-[4-(3-pyrrolidin-1-ylpropoxy)phenyl]-1H-indol-2-yl}methanol]
< 0.01	c1ccc2c(c1)cc(C1CC1)n2C1CCC(OCCCN2CCCC2)CC1 (single isomer, unassigned) [Example 39, 2-Cyclopropyl-1-[4-(3-pyrrolidin-1-ylpropoxy)cyclohexyl]-1H-indole]
< 0.01	COCc1cc2ccccc2n1-c1ccc(OCCCN2CCCC2)cc1 [Example 32, 2-Methoxymethyl-1-[4-(3-pyrrolidin-1-ylpropoxy)phenyl]-1H-indole]
< 0.01	c1ccc2c(c1)cc(COC1CCCC1)n2-c1ccc(OCCCN2CCCC2)cc1 [Example 35, 2-Cyclopentyloxymethyl-1-[4-(3-pyrrolidin-1-ylpropoxy)phenyl]-1H-indole]
< 0.01	CCCc1cc2ccccc2n1-c1ccc(OCCCN2CCCC2)cc1 [Example 38, 2-Propyl-1-[4-(3-pyrrolidin-1-ylpropoxy)phenyl]-1H-indole]
< 0.01	COCCc1cc2ccccc2n1-c1ccc(OCCCN2CCCC2)cc1 [Example 40, 2-(2-Methoxyethyl)-1-[4-(3-pyrrolidin-1-ylpropoxy)phenyl]-1H-indole]
< 0.01	OCCc1cc2ccccc2n1-c1ccc(OCCCN2CCCC2)cc1 [Example 41, 2-{1-[4-(3-Pyrrolidin-1-ylpropoxy)phenyl]-1H-indol-2-yl}ethanol]

Continued, compound first:

SMILES	Ki [µM]
Cc1ccc2c(c1)cc(C)n2-c1ccc(OCCCN2CCCC2)cc1 [Example 11, 2,5-Dimethyl-1-[4-(3-pyrrolidin-1-ylpropoxy)phenyl]-1H-indole]	< 0.1
Cc1cc2ccccc2n1-c1ccc(OCCCN2CCC[C@H]2C)cc1 [Example 3, 2-Methyl-1-{4-[3-(2R-methylpyrrolidin-1-yl)propoxy]phenyl}-1H-indole]	< 0.01
Cc1cc2ccccc2n1-c1ccc(OCCCN2CCCC2)cc1 [Example 1, 2-Methyl-1-[4-(3-pyrrolidin-1-ylpropoxy)phenyl]-1H-indole]	< 0.01
C[C@@H]1CCCN1CCCOc1ccc(-n2c(C(=O)N3CCOCC3)cc3ccccc32)cc1 [Example 25, (1-{4-[3-(2R-Methylpyrrolidin-1-yl)propoxy]phenyl}-1H-indol-2-yl)morpholin-4-ylmethanone]	< 0.01
C[C@@H]1CCCN1CCCOc1ccc(-n2c(C(=O)N3CCCCC3)cc3ccccc32)cc1 [Example 24, (1-{4-[3-(2R-Methylpyrrolidin-1-yl)propoxy]phenyl}-1H-indol-2-yl)piperidin-1-ylmethanone]	< 0.01
Cc1cc2cc(F)ccc2n1-c1ccc(OCCCN2CCCC2)cc1 [Example 13, 2-Methyl-5-fluoro-1-[4-(3-pyrrolidin-1-ylpropoxy)phenyl]-1H-indole]	< 0.01
CC(C)CNC(=O)c1cc2ccccc2n1-c1ccc(OCCCN2CCC[C@H]2C)cc1 [Example 27, 1-{4-[3-(2R-Methylpyrrolidin-1-yl)propoxy]phenyl}-1H-indole-2-carboxylic acid isobutylamide]	< 0.01
CCCCNC(=O)c1cc2ccccc2n1-c1ccc(OCCCN2CCC[C@H]2C)cc1 [Example 26, 1-{4-[3-(2R-Methylpyrrolidin-1-yl)propoxy]phenyl}-1H-indole-2-carboxylic acid butylamide]	< 0.01
C[C@@H]1CCCN1CCCOc1ccc(-n2c(C(=O)NC3CCCC3)cc3ccccc32)cc1 [Example 20, 1-{4-[3-(2R-Methylpyrrolidin-1-yl)propoxy]phenyl}-1H-indole-2-carboxylic acid cyclopentylamide]	< 0.01
Cc1cc2ccccc2n1-c1ccc(OCCCN2CCCCC2)cc1 [Example 2, 2-Methyl-1-[4-(3-piperidin-1-ylpropoxy)phenyl]-1H-indole]	< 0.01
C[C@@H]1CCCN1CCCOc1ccc(-n2c(C(=O)NC3CCC3)cc3ccccc32)cc1 [Example 19, 1-{4-[3-(2R-Methylpyrrolidin-1-yl)propoxy]phenyl}-1H-indole-2-carboxylic acid cyclobutylamide]	< 0.01
COc1ccc2c(c1)cc(C(=O)N1CCCC1)n2-c1ccc(OCCCN2CCC[C@H]2C)cc1 [Example 18, (5-Methoxy-1-{4-[3-(2R-methylpyrrolidin-1-yl)propoxy]phenyl}-1H-indol-2-yl)pyrrolidin-1-ylmethanone]	< 0.01
C[C@@H]1CCCN1CCCOc1ccc(-n2c(C(=O)NC3CCCCC3)cc3ccccc32)cc1 [Example 21, 1-{4-[3-(2R-Methylpyrrolidin-1-yl)propoxy]phenyl}-1H-indole-2-carboxylic acid cyclohexylamide]	< 0.1
C[C@@H]1CCCN1CCCOc1ccc(-n2c(C(=O)NC3CCCCCC3)cc3ccccc32)cc1 [Example 22, 1-{4-[3-(2R-Methylpyrrolidin-1-yl)propoxy]phenyl}-1H-indole-2-carboxylic acid cycloheptylamide]	< 0.1
C[C@@H]1CCCN1CCCOc1ccc(-n2c(C(=O)N3CCCC3)cc3ccccc32)cc1 [Example 23, (1-{4-[3-(2R-Methylpyrrolidin-1-yl)propoxy]phenyl}-1H-indol-2-yl)pyrrolidin-1-ylmethanone]	< 0.01
Clc1ccc2ccn(-c3ccc(OCCCN4CCCC4)cc3)c2c1 [Example 12, 6-Chloro-1-[4-(3-pyrrolidin-1-ylpropoxy)phenyl]-1H-indole]	< 0.1
